Test system: C57BL/KsJ-db/db mice
Assay: Blood sugar and triglycerides lowering activity in db/db mice (in vivo)
Conditions: for Reduction in Blood Glucose Level (%) / Triglyceride Lowering (%): oral gavage daily, male db/db mice; for Reduction in Blood Glucose Level (%): plasma glucose; for Triglyceride Lowering (%): plasma triglyceride
From the text: Mutation in colonies of laboratory animals and different sensitivities to dietary regimens have made the development of animal models with non-insulin dependent diabetes associated with obesity and insulin resistance possible. Genetic models such as db/db and ob/ob (See Diabetes. (1982) 31(1): 1-6) in mice and fa/fa and zucker rats have been developed by the various laboratories for understanding the pathophysiology of disease and testing the efficacy of new antidiabetic compounds (Diabetes, (1983)32: 830-838; Annu. Rep. Sankyo Res. Lab. (1994). 46: 1-57). The homozygous animals, C57 BL/KsJ-db/db mice developed by Jackson Laboratory, US, are obese, hyperglycemic, hyperinsulinemic and insulin resistant (J. Clin. Invest., (1990) 85: 962-967), whereas heterozygous are lean and normoglycemic. In db/db model mouse progressively develops insulinopenia with age, a feature commonly observed in late stages of human type II diabetes when blood sugar levels are insufficiently controlled. The state of pancreas and its course vary according to the models. Since this model resembles that of type II diabetes mellitus, the compounds of the present invention were tested for blood sugar and triglycerides lowering activities.
Male C57BL/KsJ-db/db mice of 8 to 14 weeks age, having body weight range of 35 to 60 grams, procured from the Jackson Laboratory, USA, were used in the experiment. The mice were provided with standard feed (National Institute of Nutrition, Hyderabad, India) and acidified water, ad libitum. The animals having more than 300 mg/dl blood sugar were used for testing. The number of animals in each group was 4.
The random blood sugar ad triglyceride levels were measured by collecting blood (100 µl) through orbital sinus, using heparinized capillary in tubes containing EDTA which was centrifuged to obtain plasma. The plasma glucose and triglyceride levels were measured through spectrometrically, by glucose oxidase and glycerol-3-PO4 oxidase/peroxidase enzyme (Dr. Reddy's Lab. Diagnostic Division Kits, Hyderabad, India) methods respectively. On 6th day the blood samples were collected one hour after administration of test compounds/vehicle for assessing the biological activity.
Test compounds were suspended on 0.25 % carboxymethyl cellulose and administered to test group at a dose of 30 mg to 200 mg/kg through oral gavage daily for 6 to 9 days. The control group received vehicle (dose 10 ml/kg).
The blood sugar and triglycerides lowering activities of the test compound was calculated according to the formula: Blood sugar / triglycerides lowering activity (%) = 1 -(DT/DC)/(TC/ZC)X 100 [formula] • ZC = Zero day control group value • DC = Zero day treated group value • TC = Control group value on test day • DT = Treated group value on the test day

[1] = dose 200 mg/kg, treated for nine days

| SMILES | Reduction in Blood Glucose Level (%) (dose 30 mg/kg) | Triglyceride Lowering (%) (dose 30 mg/kg) | Reduction in Blood Glucose Level (%) (dose 100 mg/kg) | Triglyceride Lowering (%) (dose 100 mg/kg) | further results |
| --- | --- | --- | --- | --- | --- |
| O=C1NC(=O)C(=Cc2ccc(OC3CCN(C(=O)NCc4ccccc4)CC3)cc2)S1 [Example 10, 5-[4-[1-(Benzylaminocarbonyl)piperidin-4-yloxy]phenylmethylene]thiazolidine-2,4-dione] | 37% | 6% | – | – | – |
| O=C1NC(=O)C(=Cc2ccc(OC[C@@H]3CCCN3C(=O)OCc3ccccc3)cc2)S1 [Example 5, 5-[4-[1-(Benzyloxycarbonyl)-(2S)-pyrrolidin-2-ylmethoxy]phenylmethylene]thiazolidine-2,4-dione] | 30% | 5% | – | – | – |
| O=C1NC(=O)C(=Cc2ccc(OCC3CCN(C(=O)OCc4ccccc4)CC3)cc2)S1 [Example 3, 5-[4-[1-(Benzyloxycarbonyl)piperidin-4-ylmethoxy]phenylmethylene] thiazolidine-2,4-dione] | – | – | 35% | 56% | – |
| O=C1NC(=O)C(=Cc2ccc(OC3CCN(C(=O)OCc4ccccc4)CC3)cc2)S1 [Example 1, 5-[4-[1(Benzyloxycarbonyl)piperidin-4-yloxy]phenylmethylene]thiazolidine-2,4-dione] | 47% | – | 59% | 29% | Reduction in Blood Glucose Level (%) [1]: 62%; Triglyceride Lowering (%) [1]: 70% |
| Cc1c(C)c2c(c(C)c1O)CCC(C)(COc1ccc(CC3SC(=O)NC3=O)cc1)O2 (stereo not drawn) [Troglitazone, reference compound] | – | – | – | – | reduction in random blood sugar level (100 mg/kg, daily dose, on 6th day, standard drug, db/db mice): 28% |

— patent publication EP0981526B1, “NOVEL ANTIDIABETIC COMPOUNDS HAVING HYPOLIPIDAEMIC, ANTIHYPERTENSIVE PROPERTIES, PROCESS FOR THEIR PREPARATION AND PHARMACEUTICAL COMPOSITIONS CONTAINING THEM” (Dr. Reddy's Laboratories Ltd., priority 1997, dated 1997)
